# Test results: US10428082B2, “Triazole derivatives of melampomagnolide B and methods of use thereof” (BioVentures, LLC, priority 2016, dated 2019)
# Tests used:
# Assay in all cases: NCI 60 growth inhibition
# Assay type in all cases: cell-based, human
# HCT-15 = conditions: HCT-15, Colon Cancer, Table 2
# Experimental: (§1) The above triazole derivatives of melampomagnolide B were evaluated for growth inhibitory properties against an NCI panel of 60 human cancer cell lines derived from nine human cancer cell types, grouped into disease sub-panels that represent leukemia, lung, colon, central nervous system (CNS), melanoma, renal, ovary, breast, and prostate cancer cells. Growth inhibitory (GI50) effects were measured as a function of the variation of optical density as a percentage of control.
# TK-10 = conditions: TK-10, Renal Cancer, Table 2
# Experimental: as §1
# NCI-H522 = conditions: NCI-H522, Non-Small Cell Lung Cancer, Table 2
# Experimental: as §1
# HOP-62 = conditions: HOP-62, Non-Small Cell Lung Cancer, Table 2
# Experimental: as §1
# U251 = conditions: U251, CNS Cancer, Table 2
# Experimental: as §1
# UO-31 = conditions: UO-31, Renal Cancer, Table 2
# Experimental: as §1
# SF-295 = conditions: SF-295, CNS Cancer, Table 2
# Experimental: as §1
# UACC-257 = conditions: UACC-257, Melanoma, Table 2
# Experimental: as §1
# IGROV1 = conditions: IGROV1, Ovarian Cancer, Table 2
# Experimental: as §1
# NCI-H460 = conditions: NCI-H460, Non-Small Cell Lung Cancer, Table 2
# Experimental: as §1
# HS 578T = conditions: Breast Cancer, Table 2
# Experimental: as §1
# LOX IMVI = conditions: Melanoma, Table 2
# Experimental: as §1
# UACC-62 = conditions: UACC-62, Melanoma, Table 2
# Experimental: as §1
# SK-MEL-5 = conditions: SK-MEL-5, Melanoma, Table 2
# Experimental: as §1
# EKVX = conditions: Non-Small Cell Lung Cancer, Table 2
# Experimental: as §1
# COLO 205 = conditions: COLO 205, Colon Cancer, Table 2
# Experimental: as §1
# SK-MEL-2 = conditions: SK-MEL-2, Melanoma, Table 2
# Experimental: as §1
# DU-145 = conditions: DU-145, Prostate Cancer, Table 2
# Experimental: as §1
# RPMI-8226 = conditions: RPMI-8226, Leukemia, Table 2
# Experimental: as §1
# PC-3 = conditions: PC-3, Prostate Cancer, Table 2
# Experimental: as §1
# HCT-116 = conditions: HCT-116, Colon Cancer, Table 2
# Experimental: as §1
# CAKI-1 = conditions: CAKI-1, Renal Cancer, Table 2
# Experimental: as §1
# OVCAR-8 = conditions: OVCAR-8, Ovarian Cancer, Table 2
# Experimental: as §1
# HCC-2998 = conditions: HCC-2998, Colon Cancer, Table 2
# Experimental: as §1
# OVCAR-4 = conditions: OVCAR-4, Ovarian Cancer, Table 2
# Experimental: as §1
# NCI-H322M = conditions: Non-Small Cell Lung Cancer, Table 2
# Experimental: as §1
# T-47D = conditions: Breast Cancer, Table 2
# Experimental: as §1
# HL-60(TB) = conditions: HL-60(TB), Leukemia, Table 2
# Experimental: as §1
# NCI/ADR-RES = conditions: Ovarian Cancer, Table 2
# Experimental: as §1
# A498 = conditions: A498, Renal Cancer, Table 2
# Experimental: as §1
# A549/ATCC = conditions: Non-Small Cell Lung Cancer, Table 2
# Experimental: as §1
# NCI-H226 = conditions: NCI-H226, Non-Small Cell Lung Cancer, Table 2
# Experimental: as §1
# M14 = conditions: M14, Melanoma, Table 2
# Experimental: as §1
# SR = conditions: Leukemia, Table 2
# Experimental: as §1
# SN12C = conditions: Renal Cancer, Table 2
# Experimental: as §1
# HOP-92 = conditions: HOP-92, Non-Small Cell Lung Cancer, Table 2
# Experimental: as §1
# 786-0 = conditions: 786-0, Renal Cancer, Table 2
# Experimental: as §1
# KM12 = conditions: KM12, Colon Cancer, Table 2
# Experimental: as §1
# OVCAR-3 = conditions: OVCAR-3, Ovarian Cancer, Table 2
# Experimental: as §1
# MCF7 = conditions: MCF7, Breast Cancer, Table 2
# Experimental: as §1
compound,measurement,setting,value
C=C1C(=O)O[C@H]2[C@H]1CC/C(Cn1cc(-c3cc(C)c(C)cc3C)nn1)=C\CC[C@@]1(C)O[C@@H]21 [JVM 4-50],GI50,HCT-15,200 nM
same,GI50,TK-10,1460 nM
same,GI50,NCI-H522,280 nM
same,GI50,HOP-62,1770 nM
same,GI50,U251,1530 nM
same,GI50,UO-31,520 nM
same,GI50,SF-295,6440 nM
same,GI50,UACC-257,1290 nM
same,GI50,IGROV1,1290 nM
same,GI50,NCI-H460,3160 nM
same,GI50,HS 578T,1940 nM
same,GI50,LOX IMVI,720 nM
same,GI50,UACC-62,1130 nM
same,GI50,SK-MEL-5,1660 nM
same,GI50,EKVX,1220 nM
same,GI50,COLO 205,640 nM
same,GI50,SK-MEL-2,1750 nM
same,GI50,DU-145,1350 nM
same,GI50,RPMI-8226,1180 nM
same,GI50,PC-3,1470 nM
same,GI50,HCT-116,330 nM
same,GI50,CAKI-1,1080 nM
same,GI50,OVCAR-8,920 nM
same,GI50,HCC-2998,1720 nM
same,GI50,OVCAR-4,700 nM
same,GI50,NCI-H322M,11100 nM
same,GI50,T-47D,530 nM
same,GI50,HL-60(TB),640 nM
same,GI50,NCI/ADR-RES,2510 nM
same,GI50,A498,1040 nM
same,GI50,A549/ATCC,1730 nM
same,GI50,NCI-H226,1460 nM
same,GI50,M14,1500 nM
same,GI50,SR,1260 nM
same,GI50,SN12C,1490 nM
same,GI50,HOP-92,430 nM
same,GI50,786-0,1500 nM
same,GI50,KM12,2310 nM
same,GI50,OVCAR-3,1030 nM
same,GI50,MCF7,430 nM
"C=C1C(=O)O[C@H]2[C@H]1CC/C(Cn1cc(-c3cccc(Cl)c3)nn1)=C\CC[C@@]1(C)O[C@@H]21 [JVM 4-25, (1aR,7aS,10aS,10bS,E)-5((4-(3-Chlorophenyl)-1H-1,2,3-triazol-1-yl)methyl)-1a-methyl-8-methylene-2,3,6,7,7a,8,10a,10b-octahydrooxireno[2′,3′:9,10]cyclodeca[1,2-b]furan-9(1aH)-one]",GI50,HCT-15; Homo sapiens,190 nM
same,GI50,TK-10; Homo sapiens,990 nM
same,GI50,NCI-H522; Homo sapiens,290 nM
same,GI50,HOP-62; Homo sapiens,1940 nM
same,GI50,"U251; Homo sapiens, U-251",1610 nM
same,GI50,UO-31; Homo sapiens,1080 nM
same,GI50,SF-295; Homo sapiens,3410 nM
same,GI50,UACC-257; Homo sapiens,1420 nM
same,GI50,"IGROV1; Homo sapiens, IGROV-1",730 nM
same,GI50,NCI-H460; Homo sapiens,2130 nM
same,GI50,HS 578T; Homo sapiens,2260 nM
same,GI50,LOX IMVI; Homo sapiens,280 nM
same,GI50,UACC-62; Homo sapiens,620 nM
same,GI50,SK-MEL-5; Homo sapiens,1700 nM
same,GI50,EKVX; Homo sapiens,1570 nM
same,GI50,COLO 205; Homo sapiens,410 nM
same,GI50,SK-MEL-2; Homo sapiens,1660 nM
same,GI50,DU-145; Homo sapiens,1000 nM
same,GI50,RPMI-8226; Homo sapiens,500 nM
same,GI50,PC-3; Homo sapiens,1980 nM
same,GI50,HCT-116; Homo sapiens,160 nM
same,GI50,CAKI-1; Homo sapiens,860 nM
same,GI50,OVCAR-8; Homo sapiens,1310 nM
same,GI50,HCC-2998; Homo sapiens,1640 nM
same,GI50,OVCAR-4; Homo sapiens,1090 nM
same,GI50,NCI-H322M; Homo sapiens,2170 nM
same,GI50,"T-47D; Homo sapiens, T47D",830 nM
same,GI50,HL-60(TB); Homo sapiens,330 nM
same,GI50,NCI/ADR-RES; Homo sapiens,2390 nM
same,GI50,A498; Homo sapiens,1520 nM
same,GI50,A549/ATCC; Homo sapiens,1790 nM
same,GI50,NCI-H226; Homo sapiens,1710 nM
same,GI50,M14; Homo sapiens,790 nM
same,GI50,SR; Homo sapiens,230 nM
same,GI50,SN12C; Homo sapiens,1400 nM
same,GI50,HOP-92; Homo sapiens,250 nM
same,GI50,786-0; Homo sapiens,500 nM
same,GI50,KM12; Homo sapiens,1780 nM
same,GI50,OVCAR-3; Homo sapiens,470 nM
same,GI50,MCF7; Homo sapiens,310 nM
C=C1C(=O)O[C@H]2[C@H]1CC/C(Cn1cc(-c3ccc(F)cc3)nn1)=C\CC[C@@]1(C)O[C@@H]21 [JVM 4-26],GI50,HCT-15; Homo sapiens,280 nM
same,GI50,TK-10; Homo sapiens,1240 nM
same,GI50,NCI-H522; Homo sapiens,250 nM
same,GI50,HOP-62; Homo sapiens,3040 nM
same,GI50,"U251; Homo sapiens, U-251",2020 nM
same,GI50,UO-31; Homo sapiens,1220 nM
same,GI50,SF-295; Homo sapiens,5730 nM
same,GI50,UACC-257; Homo sapiens,1470 nM
same,GI50,"IGROV1; Homo sapiens, IGROV-1",1170 nM
same,GI50,NCI-H460; Homo sapiens,3660 nM
same,GI50,HS 578T; Homo sapiens,3680 nM
same,GI50,LOX IMVI; Homo sapiens,900 nM
same,GI50,UACC-62; Homo sapiens,1260 nM
same,GI50,SK-MEL-5; Homo sapiens,1740 nM
same,GI50,EKVX; Homo sapiens,1490 nM
same,GI50,COLO 205; Homo sapiens,450 nM
same,GI50,SK-MEL-2; Homo sapiens,1830 nM
same,GI50,DU-145; Homo sapiens,690 nM
same,GI50,RPMI-8226; Homo sapiens,1410 nM
same,GI50,PC-3; Homo sapiens,2000 nM
same,GI50,HCT-116; Homo sapiens,290 nM
same,GI50,CAKI-1; Homo sapiens,1030 nM
same,GI50,OVCAR-8; Homo sapiens,1660 nM
same,GI50,HCC-2998; Homo sapiens,1740 nM
same,GI50,OVCAR-4; Homo sapiens,1290 nM
same,GI50,NCI-H322M; Homo sapiens,4390 nM
same,GI50,"T-47D; Homo sapiens, T47D",740 nM
same,GI50,HL-60(TB); Homo sapiens,720 nM
same,GI50,NCI/ADR-RES; Homo sapiens,3050 nM
same,GI50,A498; Homo sapiens,1820 nM
same,GI50,A549/ATCC; Homo sapiens,3370 nM
same,GI50,NCI-H226; Homo sapiens,2480 nM
same,GI50,M14; Homo sapiens,940 nM
same,GI50,SR; Homo sapiens,250 nM
same,GI50,SN12C; Homo sapiens,1640 nM
same,GI50,HOP-92; Homo sapiens,340 nM
same,GI50,786-0; Homo sapiens,1060 nM
same,GI50,KM12; Homo sapiens,1700 nM
same,GI50,OVCAR-3; Homo sapiens,490 nM
same,GI50,MCF7; Homo sapiens,350 nM
"C=C1C(=O)O[C@H]2[C@H]1CC/C(Cn1cc(-c3cc(C(F)(F)F)cc(C(F)(F)F)c3)nn1)=C\CC[C@@]1(C)O[C@@H]21 [JVM 4-29, (1aR,7aS,10aS,10bS,E)-5-((4-(3,5-bis(Trifluoromethyl)phenyl)-1H-1,2,3-triazol-1-yl)methyl)-1a-methyl-8-methylene-2,3,6,7,7a,8,10a,10b-octahydrooxireno[2′,3′:9,10]cyclodeca[1,2-b]furan-9(1aH)-one]",GI50,HCT-15; Homo sapiens,190 nM
same,GI50,NCI-H522; Homo sapiens,120 nM
same,GI50,HOP-62; Homo sapiens,1560 nM
same,GI50,"U251; Homo sapiens, U-251",1440 nM
same,GI50,UO-31; Homo sapiens,380 nM
same,GI50,SF-295; Homo sapiens,1190 nM
same,GI50,UACC-257; Homo sapiens,1460 nM
same,GI50,"IGROV1; Homo sapiens, IGROV-1",840 nM
same,GI50,NCI-H460; Homo sapiens,1220 nM
same,GI50,HS 578T; Homo sapiens,1030 nM
same,GI50,LOX IMVI; Homo sapiens,150 nM
same,GI50,UACC-62; Homo sapiens,340 nM
same,GI50,SK-MEL-5; Homo sapiens,1470 nM
same,GI50,EKVX; Homo sapiens,1500 nM
same,GI50,COLO 205; Homo sapiens,140 nM
same,GI50,SK-MEL-2; Homo sapiens,340 nM
same,GI50,DU-145; Homo sapiens,720 nM
same,GI50,RPMI-8226; Homo sapiens,220 nM
same,GI50,PC-3; Homo sapiens,830 nM
same,GI50,HCT-116; Homo sapiens,150 nM
same,GI50,OVCAR-8; Homo sapiens,880 nM
same,GI50,HCC-2998; Homo sapiens,1170 nM
same,GI50,OVCAR-4; Homo sapiens,500 nM
same,GI50,NCI-H322M; Homo sapiens,1670 nM
same,GI50,"T-47D; Homo sapiens, T47D",330 nM
same,GI50,HL-60(TB); Homo sapiens,190 nM
same,GI50,NCI/ADR-RES; Homo sapiens,1050 nM
same,GI50,A498; Homo sapiens,430 nM
same,GI50,A549/ATCC; Homo sapiens,1360 nM
same,GI50,NCI-H226; Homo sapiens,1650 nM
same,GI50,M14; Homo sapiens,350 nM
same,GI50,SR; Homo sapiens,100 nM
same,GI50,SN12C; Homo sapiens,700 nM
same,GI50,HOP-92; Homo sapiens,340 nM
same,GI50,786-0; Homo sapiens,160 nM
same,GI50,KM12; Homo sapiens,1040 nM
same,GI50,OVCAR-3; Homo sapiens,150 nM
same,GI50,MCF7; Homo sapiens,190 nM
